In patent publication US6599913B1, “Treating allergic and inflammatory conditions” (Schering Corporation, priority 2001, dated 2003):

Key:
[1] = Treatment of chronic idiopathic urticaria; details: oral administration
[2] = Double-blinded randomized clinical trials in seasonal allergic rhinitis
Method: Efficacy endpoints in all the studies were Total Symptom Score, Total Nasal Symptom Score, Total Non-nasal Symptom Score, and Health Quality of Life (HQOL) analysis in efficacy trials. […] This parameter measures the total symptom relief by the patient after 24 hours before taking the next day dose.

P-gp = P-gp (UniProt P21448); details: ATP hydrolysis
Method: The invention will be further described by reference to the following study.
A direct functional assay was performed with […] as described previously. Ibid. The consumption of ATP was determined by the liberated inorganic orthophosphate, which forms a color complex with molybdate.
If a compound is a substrate of P-gp the hydrolysis of ATP is required as the driving force. As ATP is consumed at a purported rate of about one or two per transport event, the hydrolysis of ATP represents transport rate or activity assay of function. […] Any change in the rate of ATP hydrolysis represents the sum of the basal activity and the contribution of the exogenous substrate to ATP hydrolysis.

human OATP1 = molecular target: T1, human OATP1 (Homo sapiens, UniProt P46721); details: at 10 μM; cited from earlier work
T1 sequence (P46721 1-670): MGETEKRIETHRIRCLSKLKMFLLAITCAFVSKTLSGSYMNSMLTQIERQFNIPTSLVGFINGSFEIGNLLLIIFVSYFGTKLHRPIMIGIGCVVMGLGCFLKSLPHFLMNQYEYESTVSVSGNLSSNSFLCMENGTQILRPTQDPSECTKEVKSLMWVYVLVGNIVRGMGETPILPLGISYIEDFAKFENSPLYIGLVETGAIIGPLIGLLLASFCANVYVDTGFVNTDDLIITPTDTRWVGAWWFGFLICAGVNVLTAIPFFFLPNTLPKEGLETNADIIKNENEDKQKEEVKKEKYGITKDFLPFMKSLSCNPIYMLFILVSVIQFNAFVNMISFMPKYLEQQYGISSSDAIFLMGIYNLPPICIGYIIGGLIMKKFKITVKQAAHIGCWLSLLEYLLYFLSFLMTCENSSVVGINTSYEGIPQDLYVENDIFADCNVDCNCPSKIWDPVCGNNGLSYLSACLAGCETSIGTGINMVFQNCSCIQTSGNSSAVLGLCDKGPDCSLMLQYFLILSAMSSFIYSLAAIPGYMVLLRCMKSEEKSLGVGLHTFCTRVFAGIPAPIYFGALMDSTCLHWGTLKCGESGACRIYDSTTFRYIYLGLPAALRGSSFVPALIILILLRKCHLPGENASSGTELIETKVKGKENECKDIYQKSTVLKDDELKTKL

rat OATP1 = molecular target: T2, rat OATP1 (Rattus norvegicus, UniProt P46720); details: cited from earlier work
T2 sequence (P46720 1-670): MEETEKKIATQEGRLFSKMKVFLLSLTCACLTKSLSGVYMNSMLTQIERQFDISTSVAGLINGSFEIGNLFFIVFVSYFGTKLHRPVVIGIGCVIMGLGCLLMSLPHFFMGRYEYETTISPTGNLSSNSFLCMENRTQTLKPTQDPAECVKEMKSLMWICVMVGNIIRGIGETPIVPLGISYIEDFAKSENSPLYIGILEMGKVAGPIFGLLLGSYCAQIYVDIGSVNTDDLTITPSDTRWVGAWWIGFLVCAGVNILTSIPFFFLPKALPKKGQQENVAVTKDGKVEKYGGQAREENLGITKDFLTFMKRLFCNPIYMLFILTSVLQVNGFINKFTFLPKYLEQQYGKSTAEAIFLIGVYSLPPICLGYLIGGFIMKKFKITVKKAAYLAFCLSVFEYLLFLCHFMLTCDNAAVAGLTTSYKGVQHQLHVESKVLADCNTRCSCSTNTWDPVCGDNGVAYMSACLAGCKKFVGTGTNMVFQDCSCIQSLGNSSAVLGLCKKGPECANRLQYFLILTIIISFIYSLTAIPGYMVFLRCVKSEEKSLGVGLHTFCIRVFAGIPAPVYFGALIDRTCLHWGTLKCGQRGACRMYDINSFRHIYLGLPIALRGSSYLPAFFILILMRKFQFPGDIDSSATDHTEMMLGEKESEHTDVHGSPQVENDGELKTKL

human OATP = molecular target: T3, human OATP (Homo sapiens, UniProt P46721); details: cited from earlier work
T3 sequence (P46721 1-670): T1 sequence (P46721 1-670)

Clc1ccc2c(c1)CCc1cccnc1C2=C1CCNCC1 [desloratadine]
Severity of pruritis, number of hives, size of largest hive, total symptom score [1]: significantly reduced | Reduction of nasal symptoms versus placebo ([2]; 5 mg): significantly (p<0.01) more effective than placebo | Total symptom scores ([2]; 5 mg once daily): significantly reduced | AM NOW total symptom score ([2]; full 24 hour dosing interval, 5 mg to 20 mg): Statistically significant (p<0.05) reductions

CCOC(=O)N1CCC(=C2c3ccc(Cl)cc3CCc3cccnc32)CC1 [loratadine]
Vmax above basal activity (P-gp; FIG. 3): ≈ 200% | Vmax as % of basal (control) activity (P-gp; without H33342): about 200%

CC[C@H](C)C(=O)O[C@H]1C[C@@H](C)C=C2C=C[C@H](C)[C@H](CC[C@@H]3C[C@@H](O)CC(=O)O3)[C@H]21 [lovastatin]
Inhibition of human OATP1 (human OATP1): effectively inhibits | Inhibition of rat OATP1 (rat OATP1; at 50 μM): effectively inhibit | Inhibition of fexofenadine uptake (human OATP): significant inhibition

CC(C)c1nc(CN(C)C(=O)N[C@H](C(=O)N[C@@H](Cc2ccccc2)C[C@H](O)[C@H](Cc2ccccc2)NC(=O)OCc2cncs2)C(C)C)cs1 [ritonavir]
Inhibition of human OATP1 (human OATP1): effectively inhibit | Inhibition of fexofenadine uptake (human OATP): significant inhibition

CC(C)(C)NC(=O)[C@@H]1C[C@@H]2CCCC[C@@H]2CN1C[C@@H](O)[C@H](Cc1ccccc1)NC(=O)[C@H](CC(N)=O)NC(=O)c1ccc2ccccc2n1 [saquinavir]
Inhibition of human OATP1 (human OATP1): effectively inhibit | Inhibition of fexofenadine uptake (human OATP): significant inhibition

APD-ajmalinium
Transport by rat OATP (rat OATP1): transports
